According to patent US11339189B2, “DNA primase and gyrase inhibitors” (B. G. NEGEV TECHNOLOGIES AND APPLICATIONS LTD., AT …, priority 2016, dated 2022):
pIC50: −log10 of the molar value.

Experiments:
[1] = molecular target: T1, T7 primase (gp4) with gp5/trx (Escherichia phage T7, UniProt P03692); experiment: Primase dependent DNA synthesis (gp4 primers extended by gp5/trx on M13 ssDNA); assay type: biochemical, bacteriophage T7; details: 350 μM of each small molecule, FIG. 4B
T1 construct: the helicase-primase (gene product 4, gp4, full-length) was run; made in house
Experimental: Primase dependent DNA synthesis: RNA primers made by gp4A were extended by gp5/trx. The reaction mixture contained 10 nM M13 ssDNA, 0.3 mM dNTPs, 0.1 μCi [α-^32P] dCTP, 20 nM gp5/trx, 200 nM monomeric gp4A, and 350 μM of each compound. The reaction was incubated for 45 min at 37° C. Reaction was terminated and amount of DNA synthesis was determined as described in DNA polymerase assay.
Small molecules that inhibit the concerted activity of primase and DNA polymerase: To evaluate the ability of the small molecule candidates to inhibit the primase-dependent replication of the lagging strand of bacteriophage DNA, an overall assay that involved the concerted activity of DNA polymerase (gene product 5 and E. coli thioredoxin, gp5/trx) and the helicase-primase (gene product 4, gp4, full-length) was run. In bacteriophage T7, lagging strand DNA synthesis involves interactions between gp5/trx and gp4. Full-length gp4 is required for the synthesis of oligoribonucleotides to initiate the synthesis of Okazaki fragments.
To examine the effect of 350 μM of each small molecule on the synthesis of primers and their transfer to gp5/trx, M13 ssDNA for the synthesis of oligoribonucleotides by the primase and their extension by gp5/trx was used (FIG. 4b, inset). To initiate DNA synthesis, the primase must first synthesize tetraribonucleotides on the DNA and then transfer them to gp5/trx. In addition to the four dNTPs, ATP and CTP were also provided, and the primers that were synthesized included pppACCC, pppACAC, and pppACCA.
The Table in FIG. 6A presents the inhibitory effect of various small molecules on primase-dependent DNA synthesis mediated by gp5/trx and gene 4 helicase (gp4A). The standard reaction contained the ssM13 DNA template (10 nM), 0.3 mM dATP, dGTP, dCTP and [α-^32P] dTTP (0.1 mCi), 10 nM gp5/trx, 200 nM monomeric concentrations of […] and 250 μM of small molecule inhibitors. After incubation for 30 min at 37° C., the level of […] was determined based on the amount of [α-^32P] dTTP incorporated into DNA.

T7 DNA primase [2] = molecular target: T2, T7 DNA primase (Escherichia phage T7, UniProt P03692); experiment: [1H,15N]-TROSY HSQC titration of labeled primase with compounds; assay type: binding, bacteriophage T7; details: compared to free T7 primase
T2 construct: T7 primase domain (residue: 1-271) was over-produced and purified using metal free buffers; made in house; host or cells: E. coli Bl21(DE3) containing pETg4P
Experimental: [^1H,^15N]-TROSY HSQC titration spectra of 15N,D T7 DNA primase with selected fragment molecules and compounds 1, 12, 13, 15, 17, ATP, and DNA were recorded at 25° C. on a Bruker DMX 800 MHz spectrometer equipped with TXI cryoprobes with Z gradient. Data were processed and analyzed using NMRPipe (Journal of Biomolecular NMR 6, 277-293 (1995)) and NMRView (Journal of Biomolecular Nmr 4, 603-614 (1994)).
Structural analysis of inhibitor-primase interactions: To characterize the binding of the compounds identified using FBVS, the [^15N, ^1H]-TROSY-HSQC spectra of ^15N- and D-labeled T7 primase in the presence of the selected lead compounds (FIGS. 7A-B) were measured. […] Relative to the initial scaffold alone, those shifts were more pronounced, which indicates stronger binding interactions. In addition, chemical shift perturbations upon the addition of DNA and ATP/CTP to the T7 primase domain confirmed that all three compounds bind to the active site. […] Compounds 12 and 15, whose polar dissolution values were the lowest from among the five inhibitors, were not able to achieve the concentrations needed for the protein-NMR experiments.

[3] = molecular target: T3, T7 DNA primase (primase domain of bacteriophage T7 gene 4 protein, residues 1-271) (Escherichia phage T7, UniProt P03692); experiment: Oligoribonucleotide synthesis assay: template-directed diribonucleotide (pppAC) synthesis catalyzed by the T7 DNA primase domain (FIG. 5); assay type: biochemical; details: T7 gene 4 primase domain (residues 1-271, expressed in E. coli BL21(DE3)); DNA template with recognition site 5'-GTC-3' (5'-GGGTCA10-3'), ATP, [α-32P]-CTP, 10 mM MnCl2, pH 7.5; gel autoradiography of pppAC; four parameter logistic fit; parenthesised figure not explained
T3 construct: T7 primase domain (residue: 1-271) was over-produced and purified; made in house; host or cells: E. coli BL21(DE3), plasmid pETg4P
Source text: FIGS. 5A-C present a scheme summarizing the assay in which the DNA template containing the primase recognition site 5′-GTCA10-3′ enables the synthesis of only diribonucleotides pppAC (FIG. 5A), and gel bands and quantification of gel bands representing the reaction products (5′-pppAC-3′) (FIG. 5B and FIG. 5C, respectively).
Protein expression and purification: Proteins and Reagents. All chemical reagents were of molecular biology grade (Sigma); ATP and CTP (Roche Molecular Biochemicals). dNTPs and ddNTPs were purchased from USB Corp. Premade gels (10-20% linear gradients) used for SDS-PAGE and Precision Plus Protein prestained standards were purchased from BioRad (Hercules, Calif.). T7 primase domain (residue: 1-271) was over-produced and purified using metal free buffers as previously described in Mol Cell 11, 1349-60 (2003). T7 gp5 and E. Coli trx were overproduced and purified as described in J. Biol. Chem. 262, 16224-32 (1987). Gp4 was overproduced and purified as described in J. Biol. Chem. 272, 18425-33 (1997). M13 ssDNA was prepared as described in J. Biol. Chem. 261, 15208-16 (1986). [α-^32P]-CTP (800 Ci/mmol) was purchased from Perkin Elmer.
(§1) Oligoribonucleotide Synthesis Assay: Oligoribonucleotides were synthesized by DNA primase, product was measured as described in J Biol Chem 272, 5943-51 (1997) and in J Biol Chem 266, 23240-50 (1991), in reactions containing various concentrations (1.1, 3.3, and 10 μM) of gene 4 primase domain. […]
(§2) Small molecules that inhibit primase activity: to catalyze the synthesis of short RNA primers, T7 primase requires DNA with a primase recognition site, ATP and CTP, and a buffer containing divalent metal ions. […] The radioactively labeled oligoribonucleotides were separated on a denaturing polyacrylamide gel, and radioactivity was measured on an autoradiogram. The amounts of RNA-primed DNA syntheses were determined by measuring the incorporation of dTMP (see Methods). […]

[4] = Polar dissolution of inhibitors for protein-NMR experiments; assay type: physicochemical; details: among the five inhibitors
T7 DNA primase [5] = molecular target: T2, T7 DNA primase; experiment: Fragment based screening by STD NMR spectroscopy; assay type: binding, bacteriophage T7; details: ranked by total change in intensity and number of affected peaks; Maybridge Ro3 library
Experimental: NMR experiments—Fragment Based Screening: T7 primase was screened against the Maybridge Ro3 Diversity Fragment Library containing 1000 compounds using STD spectroscopy. Samples for 1D ligand-observed NMR studies contained […] T7 primase in 50 mM phosphate buffer in D2O and 10 compounds, resulting in a total of 100 samples. NMR spectra were recorded on a Bruker Avance 500 MHz equipped with a TXO cryoprobe with Z gradient and a NMR-CASE sample changer at 298 K. Ligand binding was probed using a saturation transfer difference pulse program. Saturation was achieved using on-resonance irradiation at 0 ppm with a train of Wurst pulses for a total saturation time of 1.5 s. Off resonance irradiation was centered at 40 ppm. Spectra were acquired with a sweep width of 8012.8 Hz, 8192 data points and 224 scans. Active compounds were identified by comparing the STD spectra with the corresponding reference spectra using the MestreNova software. Any compound with reduced peak intensities was considered a hit and ranked according to the percentage of intensity decrease and the number of affected peaks per compound.
Using the Maybridge Ro3 fragment library containing 1000 fragments, 100 NMR samples were prepared, each containing a mixture of 10 fragments and 50 μM T7 primase.
The 10 fragments were chosen to show minimal overlap of their 1H chemical shift to allow easy identification of the shifts. […]

T7 primase domain = molecular target: T4, T7 primase domain (Escherichia phage T7, UniProt P03692); experiment: Oligoribonucleotide (pppAC diribonucleotide) synthesis assay; assay type: biochemical, bacteriophage T7; details: pppAC synthesis by T7 primase domain; four parameter logistic fit
T4 construct: T7 primase domain (residue: 1-271) was over-produced and purified using metal free buffers; made in house; host or cells: E. coli Bl21(DE3) containing pETg4P
Experimental: as §1, with “domain. Standard 10 μL reaction contained 5 μM of DNA template (5′-GGGTCA10-3′), 200 μM ATP, 200 μM [α-^32P]-CTP, and primase domain in a buffer containing 40 mM Tris-HCl (pH 7.5), 10 mM MnCl2, 10 mM DTT, and 50 mM potassium glutamate.” for “domain.”
as §2
The reaction conditions involve incubating the primase domain with an oligonucleotide containing a primase recognition sequence. […] After incubation, the radioactive products were analyzed by electrophoresis through 25% polyacrylamide gel containing 3 M urea and visualized using autoradiography.

T1 sequence (P03692 whole entry): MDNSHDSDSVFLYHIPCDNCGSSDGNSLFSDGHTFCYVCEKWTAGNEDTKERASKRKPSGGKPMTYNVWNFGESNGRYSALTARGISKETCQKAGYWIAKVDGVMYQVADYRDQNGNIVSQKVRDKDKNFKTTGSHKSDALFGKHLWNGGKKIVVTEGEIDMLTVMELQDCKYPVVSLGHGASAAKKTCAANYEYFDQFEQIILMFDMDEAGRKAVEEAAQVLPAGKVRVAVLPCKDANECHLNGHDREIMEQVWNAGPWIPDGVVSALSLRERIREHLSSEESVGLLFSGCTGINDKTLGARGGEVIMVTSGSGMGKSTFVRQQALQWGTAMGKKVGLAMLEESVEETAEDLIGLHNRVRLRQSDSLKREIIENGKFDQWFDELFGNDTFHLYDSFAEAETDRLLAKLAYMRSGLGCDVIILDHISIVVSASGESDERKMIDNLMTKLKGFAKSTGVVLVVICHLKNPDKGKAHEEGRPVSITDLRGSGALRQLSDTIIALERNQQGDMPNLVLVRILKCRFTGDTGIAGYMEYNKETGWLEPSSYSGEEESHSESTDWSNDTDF
T2 sequence (P03692 1-271): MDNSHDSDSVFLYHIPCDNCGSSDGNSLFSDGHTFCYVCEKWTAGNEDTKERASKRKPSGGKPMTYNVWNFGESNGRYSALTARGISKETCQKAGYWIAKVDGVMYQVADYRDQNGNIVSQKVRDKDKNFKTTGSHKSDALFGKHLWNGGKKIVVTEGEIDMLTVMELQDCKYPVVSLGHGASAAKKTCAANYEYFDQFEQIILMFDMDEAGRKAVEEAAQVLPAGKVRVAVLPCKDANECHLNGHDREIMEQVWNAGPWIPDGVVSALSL
T3 sequence (P03692 1-271): as above
T4 sequence (P03692 1-271): as above

For `CCOC(=O)c1[nH]c2ccc([N+](=O)[O-])cc2c1CCC(=O)O` [compound 13, 3-[2-(ethoxycarbonyl)-5-nitro-1H-indol-3-yl]propanoic acid], which “decrease of primase dependent DNA synthesis” value [1] is on record?
The value was “decreases by up to four-fold”.

And the “chemical shift perturbations of T7 primase upon compound addition” value (“chemical shift perturbations” for short) (T7 DNA primase [2])?
The value was “significant chemical shift perturbations”.

With `O=C(Nc1ccc2c(c1)OCO2)c1cc2cccc([N+](=O)[O-])c2[nH]1` [Compound 15, N-(1,3-benzodioxol-5-yl)-7-nitro-1H-indole-2-carboxamide] as the molecule, how does the pIC50 [3] read?
Its pIC50 is 4.25.

With `O=C1Cc2c([nH]c3ccc([N+](=O)[O-])cc23)-c2ccccc2N1` [Compound 12, 9-Nitro-7,12-dihydroindolo-[3,2-d][1]benzazepin-6(5)-one] as the molecule, how does the pIC50 [3] read?
The pIC50 was 3.96.

Which “decrease of primase dependent DNA synthesis” value [1] does the source give for `O=C(Nc1ccc2c(c1)OCO2)c1cc2cccc([N+](=O)[O-])c2[nH]1` [compound 15, N-(1,3-benzodioxol-5-yl)-7-nitro-1H-indole-2-carboxamide] here?
Its value is “decreases by up to four-fold”.

And the polar dissolution values [4]?
Its polar dissolution values is “lowest”.

Which “binding to T7 primase by STD spectroscopy (decrease in NMR peak intensities)” value (T7 DNA primase [5]) does the source give for `NC(=S)C1=Cc2ccccc2OC1` [2H-chromene-3-carbothioamide] here?
The value was “strongest binding”.

With `O=C(O)c1cc2cccc([N+](=O)[O-])c2[nH]1` [compound 17, 7-nitro-1H-indole-2-carboxylic acid] as the molecule, how does the “decrease of primase dependent DNA synthesis” value [1] read?
Its value is “decreases by up to four-fold”.

And the “chemical shift perturbations” value (T7 DNA primase [2])?
The value was “significant chemical shift perturbations”.

With `c1ccc2[nH]ccc2c1` [indole] as the molecule, how does the “binding to T7 primase by STD spectroscopy (decrease in NMR peak intensities)” value (T7 DNA primase [5]) read?
Its value is “strongest binding”.

What does the source list for `O=C1Cc2c([nH]c3ccc([N+](=O)[O-])cc23)-c2ccccc2N1` [compound 12, 9-Nitro-7,12-dihydroindolo-[3,2-d][1]benzazepin-6(5)-one]?
decrease of primase dependent DNA synthesis [1]: decreases by up to four-fold; polar dissolution values [4]: lowest; Hill coefficient (T7 primase domain): highest value

With `O=C(O)c1cc2cccc([N+](=O)[O-])c2[nH]1` [Compound 17, 7-nitro-1H-indole-2-carboxylic acid] as the molecule, how does the pIC50 [3] read?
The pIC50 was 3.50.

For `O=C(O)/C=C/C1=Cc2cc(Cl)ccc2OC1` [compound 1, (2E)-3-(6-chloro-2H-chromen-3-yl)acrylic acid], which “decrease of primase dependent DNA synthesis” value [1] is on record?
Its value is “decreases by up to four-fold”.

What about the “chemical shift perturbations” value (T7 DNA primase [2]) of the same molecule?
The value was “significant chemical shift perturbations”.
